The results in this text go back to US9024018B2, “3-substituted-8-substituted-3H-imidazo[5,1-d][1,2,3,5]tetrazin-4-one compounds and their use” (Pharminox Limited, priority 2009, dated 2015).

Some results are limits rather than exact numbers.

In general, GI50 refers to the concentration at which growth is held to half of that of the control.

Common to all, as to assay type: cell-based
One test relates to U373M. Description: MTT assay for 7-day toxicity, U373M glioma cells (stably transfected with MGMT, MGMT+). The conditions noted are these: Glioma cell, 168 h, 7 day MTT assay, glioma line U373M. The essentials:
(§1)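 Cells in RPMI 1640 with 10% FBS and 400 μg/mL G418 were seeded at 650 cells/well, attached overnight, then exposed 7 days at 37 °C to compound at final 0.5–1000 μM (≥4 wells each). Viability read by MTT against a time-zero plate.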

The test system of another test is SNB19M. Description: MTT assay for 7-day toxicity, SNB19M glioma cells (stably transfected with MGMT, MGMT+). Conditions: Glioma cell, 168 h, 7 day MTT assay, glioma line SNB19M. In outline:
as §1
(In general: Tetrazolium dyes change colour on reduction, which living cells bring about.)

The test system of another test is U373V. Description: MTT assay for 7-day toxicity, U373V glioma cells (vector control, MGMT-). Conditions: Glioma cell, 168 h, 7 day MTT assay, glioma line U373V. The essentials: as §1
For the next test, the system named is SNB19V. Briefly: MTT assay for 7-day toxicity, SNB19V glioma cells (vector control, MGMT-). The conditions noted are these: Glioma cell, 168 h, 7 day MTT assay, glioma line SNB19V. The essentials: as §1

As to `Cn1nnc2c(-c3nc4ccccc4s3)ncn2c1=O` [WW-058, 8-(Benzo[d]thiazol-2-yl)-3-methylimidazo[5,1-d][1,2,3,5]tetrazin-4(3H)-one], the concentration for 50% growth inhibition (GI50) is below 60 µM in the test on U373M, below 70 µM with SNB19M, below 75 µM in the test with U373V and below 45 µM in the test on SNB19V.
For `Cn1nnc2c(-c3nc4ccccc4[nH]3)ncn2c1=O` [WW-062, 8-(1H-Benzo[d]imidazol-2-yl)-3-methylimidazo[5,1-d][1,2,3,5]tetrazin-4(3H)-one], the GI50 is below 60 µM in the test on U373M, below 70 µM in the test on SNB19M, below 75 µM in the test with U373V and below 45 µM in the test with SNB19V.
Taken in the same sequence, the figures for `C#CCn1nnc2c(-c3nc4ccccc4[nH]3)ncn2c1=O` [WW-063, 8-(1H-Benzo[d]imidazol-2-yl)-3-(prop-2-ynyl)imidazo[5,1-d][1,2,3,5]tetrazin-4(3H)-one] were below 60 µM, below 70 µM, below 75 µM and below 45 µM.
